Data set [1] concerns the target Cholinesterase (Equus caballus, UniProt P81908). Description: Inhibition of equine BChE.
In data set [2] the target is High affinity cGMP-specific 3',5'-cyclic phosphodiesterase 9A (Homo sapiens, UniProt O76083). Description: Inhibition of PDE9A (unknown origin).
Data set [3] has as its target T1, Acetylcholinesterase (Homo sapiens, UniProt P22303). Description: Inhibition of human AChE.
The target in data set [4] is Muscarinic acetylcholine receptor M1 (Homo sapiens, UniProt P11229). The experiment in a line: Binding affinity to Muscarinic acetylcholine receptor M1 (unknown origin) assessed as inhibition constant.
For data set [5], the target named is Muscarinic acetylcholine receptor M2 (Homo sapiens, UniProt P08172). The experiment in a line: Binding affinity to Muscarinic acetylcholine receptor M2 (unknown origin) assessed as inhibition constant.
Data set [6] concerns the target Muscarinic acetylcholine receptor M3 (Homo sapiens, UniProt P20309). Description: Binding affinity to Muscarinic acetylcholine receptor M3 (unknown origin) assessed as inhibition constant.
Data set [7] concerns the target T2, Cholinesterase (Homo sapiens, UniProt P06276). Description: Inhibition of recombinant human serum BChE using butyrylthiocholine iodide as substrate preincubated for 20 mins followed by substrate addition measured for 45 to 90 mins by Ellman's method.
The target of data set [8] is Fatty-acid amide hydrolase 1 (Rattus norvegicus, UniProt P97612). Description: Displacement of [14C]-ethanolamine from FAAH derived from rat brain membrane fraction preincubated for 20 mins followed by susbstrate addition by scintillation counting method. The data set is classed as cell membranes.
Sequence of Fatty-acid amide hydrolase 1 (P97612 whole entry): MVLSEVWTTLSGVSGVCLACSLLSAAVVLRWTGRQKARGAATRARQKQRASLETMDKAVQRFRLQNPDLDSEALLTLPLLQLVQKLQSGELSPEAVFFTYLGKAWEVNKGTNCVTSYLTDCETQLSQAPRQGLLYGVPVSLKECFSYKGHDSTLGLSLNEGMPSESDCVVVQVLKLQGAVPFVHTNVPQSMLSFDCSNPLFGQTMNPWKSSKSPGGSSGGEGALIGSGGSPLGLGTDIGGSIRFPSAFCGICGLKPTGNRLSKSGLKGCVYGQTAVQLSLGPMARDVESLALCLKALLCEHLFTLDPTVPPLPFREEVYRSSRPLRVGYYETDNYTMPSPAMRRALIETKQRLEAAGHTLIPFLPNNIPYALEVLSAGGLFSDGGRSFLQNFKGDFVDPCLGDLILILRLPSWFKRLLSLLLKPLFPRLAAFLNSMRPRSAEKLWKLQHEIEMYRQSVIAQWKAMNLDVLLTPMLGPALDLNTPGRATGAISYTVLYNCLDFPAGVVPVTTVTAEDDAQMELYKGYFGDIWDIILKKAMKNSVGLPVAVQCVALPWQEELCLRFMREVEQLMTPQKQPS
Data set [9] addresses Cholinesterases; ACHE & BCHE (Homo sapiens) (UniProt P06276+P22303). Description: Selectivity index, ratio of IC50 for recombinant human serum AChE to IC50 for recombinant human serum BChE. The data set is classed as protein assay.
For data set [10], the target named is T1, Acetylcholinesterase. Description: Inhibition of recombinant human AChE using acetylthiocholine as substrate at 100 uM preincubated for 5 mins followed by substrate addition measured for 1 min by Ellman's method relative to control. To be noted: time 6.0 min.
For data set [11], the target named is T3, Amine oxidase [flavin-containing] A (Homo sapiens, UniProt P21397).
T3 sequence (P21397 whole entry): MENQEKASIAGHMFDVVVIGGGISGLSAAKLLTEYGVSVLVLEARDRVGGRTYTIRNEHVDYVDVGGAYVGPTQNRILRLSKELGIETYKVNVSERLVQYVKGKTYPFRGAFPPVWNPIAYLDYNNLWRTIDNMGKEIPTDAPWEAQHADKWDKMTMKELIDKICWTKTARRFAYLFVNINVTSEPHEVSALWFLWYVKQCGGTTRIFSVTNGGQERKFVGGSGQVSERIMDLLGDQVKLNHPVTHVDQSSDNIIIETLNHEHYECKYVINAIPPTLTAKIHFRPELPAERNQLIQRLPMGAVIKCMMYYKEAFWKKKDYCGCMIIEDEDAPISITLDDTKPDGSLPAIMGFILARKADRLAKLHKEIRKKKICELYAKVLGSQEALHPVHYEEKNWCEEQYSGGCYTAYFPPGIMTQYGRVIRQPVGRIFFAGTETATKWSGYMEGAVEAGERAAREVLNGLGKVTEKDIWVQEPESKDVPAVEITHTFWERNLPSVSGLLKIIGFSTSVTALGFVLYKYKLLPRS
The experiment in a line: Inhibition of recombinant human MAO-A expressed in BTI-TN-5B1-4 insect cells using p-tyramine as substrate at 100 uM preincubated for 15 mins followed by substrate addition measured after 20 mins by Amplex Red assay relative to control. To be noted: BTI-TN-5B1-4, human, time 35 min.

Data set [12] concerns the target T1, Acetylcholinesterase. Description: Binding affinity to human AChE assessed as inhibition constant.
The target of data set [13] is T2, Cholinesterase. The experiment in a line: Binding affinity to human BChE assessed as inhibition constant.
Data set [14] concerns the target T1, Acetylcholinesterase. Description: Inhibition of human erythrocyte AChE using acetylthiocholine iodide as substrate preincubated for 6 mins followed by substrate addition measured upto 180 secs by Ellman's method.
Data set [15] has as its target T3, Amine oxidase [flavin-containing] A. The experiment in a line: Inhibition of recombinant human MAO-A using p-tyramine as substrate preincubated for 15 mins followed by substrate addition measured upto 20 mins by Amplex red assay.
Data set [16] has as its target T4, Acetylcholinesterase (Rattus norvegicus, UniProt P37136).
T4 sequence (P37136 whole entry): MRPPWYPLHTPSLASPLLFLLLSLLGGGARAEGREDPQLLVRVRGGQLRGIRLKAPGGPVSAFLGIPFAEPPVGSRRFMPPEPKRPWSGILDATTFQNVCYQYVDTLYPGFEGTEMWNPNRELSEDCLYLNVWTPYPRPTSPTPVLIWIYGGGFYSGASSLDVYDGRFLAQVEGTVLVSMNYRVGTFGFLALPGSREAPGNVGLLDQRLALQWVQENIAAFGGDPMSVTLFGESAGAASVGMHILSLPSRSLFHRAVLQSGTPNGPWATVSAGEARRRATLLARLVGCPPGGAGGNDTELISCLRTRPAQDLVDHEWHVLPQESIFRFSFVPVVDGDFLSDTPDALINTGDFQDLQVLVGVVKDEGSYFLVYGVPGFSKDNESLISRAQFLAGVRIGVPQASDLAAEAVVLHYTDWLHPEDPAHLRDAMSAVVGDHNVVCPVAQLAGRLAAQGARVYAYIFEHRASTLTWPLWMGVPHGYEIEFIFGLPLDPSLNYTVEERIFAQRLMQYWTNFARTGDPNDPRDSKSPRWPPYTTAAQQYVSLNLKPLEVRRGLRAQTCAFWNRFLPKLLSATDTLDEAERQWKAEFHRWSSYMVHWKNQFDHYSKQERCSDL
The experiment in a line: Inhibition of rat cortex AChE using acetylthiocholine iodide as substrate incubated for 15 mins by Ellman's method.

For a further data set, the target named is Butyrylcholinesterase (Rattus norvegicus, UniProt Q9JKC1). Description: Inhibition of rat serum BChE using butyrylthiocholine iodide as substrate incubated for 15 mins by Ellman's method.
Sequence of Butyrylcholinesterase (Q9JKC1 whole entry): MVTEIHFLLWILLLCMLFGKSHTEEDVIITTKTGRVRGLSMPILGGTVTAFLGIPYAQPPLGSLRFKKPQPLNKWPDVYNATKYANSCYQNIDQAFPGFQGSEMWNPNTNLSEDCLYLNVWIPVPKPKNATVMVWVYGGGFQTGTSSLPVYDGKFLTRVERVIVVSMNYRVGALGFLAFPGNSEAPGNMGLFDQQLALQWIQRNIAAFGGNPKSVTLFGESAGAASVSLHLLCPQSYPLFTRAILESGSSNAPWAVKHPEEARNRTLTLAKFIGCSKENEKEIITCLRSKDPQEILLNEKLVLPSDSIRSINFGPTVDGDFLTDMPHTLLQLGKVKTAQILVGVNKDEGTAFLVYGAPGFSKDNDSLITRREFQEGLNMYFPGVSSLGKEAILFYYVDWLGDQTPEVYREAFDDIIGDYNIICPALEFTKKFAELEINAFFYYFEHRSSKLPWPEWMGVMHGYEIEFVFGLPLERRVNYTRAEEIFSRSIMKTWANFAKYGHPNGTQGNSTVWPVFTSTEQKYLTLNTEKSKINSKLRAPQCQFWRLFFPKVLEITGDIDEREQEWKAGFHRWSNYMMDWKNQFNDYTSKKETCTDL
Data set [17] deals with Acetylcholinesterase and butyrylcholinesterase (AChE and BChE) (Rattus norvegicus) (UniProt P37136+Q9JKC1). The experiment in a line: Selectivity index, ratio of IC50 for rat serum BChE to IC50 for rat cortex AChE.
Sequence of Acetylcholinesterase and butyrylcholinesterase (AChE and BChE) (Rattus norvegicus) (Q9JKC1 1-597, one chain of several): as the sequence (Q9JKC1 whole entry) above
The nature of data set [18]: Selectivity index, ratio of IC50 for human plasma BChE to IC50 for electric eel AChE.
Data set [19] deals with Acetylcholinesterase (Electrophorus electricus, UniProt O42275). Description: Inhibition of electric eel AChE using acetylthiocholine iodide as substrate incubated for 5 mins followed by substrate addition by Ellman's method.
Sequence of Acetylcholinesterase (Electrophorus electricus, UniProt O42275) (O42275 whole entry): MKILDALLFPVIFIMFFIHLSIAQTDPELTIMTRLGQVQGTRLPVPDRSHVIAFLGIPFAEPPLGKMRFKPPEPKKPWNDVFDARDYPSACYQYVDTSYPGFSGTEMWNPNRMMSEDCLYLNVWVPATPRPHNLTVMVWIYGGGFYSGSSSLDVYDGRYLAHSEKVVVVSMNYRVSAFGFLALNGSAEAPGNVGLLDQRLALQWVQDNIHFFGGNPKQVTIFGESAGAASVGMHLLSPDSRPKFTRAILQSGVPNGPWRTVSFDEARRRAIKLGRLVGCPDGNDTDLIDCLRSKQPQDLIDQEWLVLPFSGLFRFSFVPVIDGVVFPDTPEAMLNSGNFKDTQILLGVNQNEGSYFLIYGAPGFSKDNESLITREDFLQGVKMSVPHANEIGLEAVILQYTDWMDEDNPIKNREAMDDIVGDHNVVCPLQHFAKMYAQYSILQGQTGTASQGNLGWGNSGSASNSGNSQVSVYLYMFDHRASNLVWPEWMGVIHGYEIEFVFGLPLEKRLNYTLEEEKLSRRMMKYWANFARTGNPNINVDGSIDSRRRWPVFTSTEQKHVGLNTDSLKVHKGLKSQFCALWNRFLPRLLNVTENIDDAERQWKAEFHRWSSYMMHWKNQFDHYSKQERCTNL
Data set [20] addresses T4, Acetylcholinesterase. Description: Inhibition of rat AChE by Ellman's method.
In data set [21] the target is T3, Amine oxidase [flavin-containing] A. Description: Inhibition of MAO-A (unknown origin).
Data set [22] addresses T5, Amine oxidase [flavin-containing] B (Homo sapiens, UniProt P27338).
T5 sequence (P27338 whole entry): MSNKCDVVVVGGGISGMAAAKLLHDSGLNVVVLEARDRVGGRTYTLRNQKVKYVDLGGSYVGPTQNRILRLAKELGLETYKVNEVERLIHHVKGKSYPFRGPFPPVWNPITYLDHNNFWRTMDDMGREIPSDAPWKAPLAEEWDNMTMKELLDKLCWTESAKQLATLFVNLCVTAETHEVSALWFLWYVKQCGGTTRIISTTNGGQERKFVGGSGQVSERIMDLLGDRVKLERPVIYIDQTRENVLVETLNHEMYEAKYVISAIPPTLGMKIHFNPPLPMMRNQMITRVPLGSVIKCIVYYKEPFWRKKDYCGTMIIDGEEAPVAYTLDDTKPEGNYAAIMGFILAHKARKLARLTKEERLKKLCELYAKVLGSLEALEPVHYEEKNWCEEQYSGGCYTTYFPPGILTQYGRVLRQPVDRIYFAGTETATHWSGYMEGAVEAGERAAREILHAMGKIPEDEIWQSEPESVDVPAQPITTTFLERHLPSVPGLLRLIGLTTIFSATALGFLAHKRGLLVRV
The experiment in a line: Inhibition of MAO-B (unknown origin).

Another data set concerns the target Carbonic anhydrase 1 (Homo sapiens, UniProt P00915). Description: Binding affinity to human CA1 assessed as inhibition constant using p-nitrophenylacetate as substrate by spectrophotometry.
Another data set addresses Carbonic anhydrase 2 (Homo sapiens, UniProt P00918). The experiment in a line: Binding affinity to human CA2 assessed as inhibition constant using p-nitrophenylacetate as substrate by spectrophotometry.
Data set [23] has as its target T1, Acetylcholinesterase. Description: Binding affinity to AChE (unknown origin) assessed as inhibition constant using acetylthiocholine iodide as substrate preincubated for 10 mins followed by substrate addition by Ellman's method.
Data set [24] concerns the target T1, Acetylcholinesterase. Description: Binding affinity to AChE (unknown origin) assessed as inhibition constant preincubated for 60 mins followed by substrate addition measured after 60 mins by colorimetric method.
The next data set concerns the target Beta-secretase 1 (Homo sapiens, UniProt P56817). Description: Inhibition of BACE1 (unknown origin) using A-beta-PP as substrate by fluorescence based assay.
Data set [25] addresses T1, Acetylcholinesterase. The experiment in a line: Binding affinity to AChE (unknown origin) assessed as inhibition constant.
A short description of data set [26]: Toxicity in mouse assessed as lethal dose. The settings on record: in vivo.

Structures are written as SMILES. Bounds are passed on as bounds.

The source of these data is ChEMBL document CHEMBL5214927, “Recent advance on carbamate-based cholinesterase inhibitors as potential multifunctional agents against Alzheimer's disease” (Eur J Med Chem, 2022).

T1 sequence (P22303 whole entry): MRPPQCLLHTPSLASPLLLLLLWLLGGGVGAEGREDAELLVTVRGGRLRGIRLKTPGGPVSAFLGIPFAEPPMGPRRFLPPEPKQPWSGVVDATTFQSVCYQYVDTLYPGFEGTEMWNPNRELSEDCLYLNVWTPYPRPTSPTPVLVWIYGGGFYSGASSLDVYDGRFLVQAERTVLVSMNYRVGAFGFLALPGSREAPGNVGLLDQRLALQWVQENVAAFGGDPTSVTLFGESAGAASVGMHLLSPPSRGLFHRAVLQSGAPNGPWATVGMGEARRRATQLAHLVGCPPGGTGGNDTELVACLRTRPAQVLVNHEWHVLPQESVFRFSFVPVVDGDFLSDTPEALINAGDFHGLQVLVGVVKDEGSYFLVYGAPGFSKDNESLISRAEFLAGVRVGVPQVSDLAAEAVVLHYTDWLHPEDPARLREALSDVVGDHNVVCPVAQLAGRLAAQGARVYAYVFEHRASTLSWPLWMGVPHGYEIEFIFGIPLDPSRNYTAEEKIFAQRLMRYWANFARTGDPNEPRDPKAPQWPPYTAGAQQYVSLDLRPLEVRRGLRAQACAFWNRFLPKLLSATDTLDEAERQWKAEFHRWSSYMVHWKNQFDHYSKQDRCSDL
Sequence of Cholinesterases; ACHE & BCHE (Homo sapiens) (P06276 whole entry, looked up): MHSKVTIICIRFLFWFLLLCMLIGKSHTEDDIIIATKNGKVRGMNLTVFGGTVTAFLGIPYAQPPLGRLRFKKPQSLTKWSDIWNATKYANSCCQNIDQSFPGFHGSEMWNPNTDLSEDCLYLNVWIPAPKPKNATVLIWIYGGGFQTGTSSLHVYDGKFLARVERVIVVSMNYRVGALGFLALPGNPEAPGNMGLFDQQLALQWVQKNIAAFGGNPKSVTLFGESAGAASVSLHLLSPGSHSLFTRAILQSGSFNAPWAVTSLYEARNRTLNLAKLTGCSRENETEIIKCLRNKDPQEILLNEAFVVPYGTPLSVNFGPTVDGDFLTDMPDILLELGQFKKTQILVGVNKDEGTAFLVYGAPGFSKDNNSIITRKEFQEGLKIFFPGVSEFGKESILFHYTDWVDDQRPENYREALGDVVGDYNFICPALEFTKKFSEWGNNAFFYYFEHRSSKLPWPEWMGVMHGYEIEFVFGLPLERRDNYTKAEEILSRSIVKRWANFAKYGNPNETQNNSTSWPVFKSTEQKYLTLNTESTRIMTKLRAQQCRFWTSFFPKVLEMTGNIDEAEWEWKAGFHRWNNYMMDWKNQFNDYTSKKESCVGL
Sequence of Cholinesterases; ACHE & BCHE (Homo sapiens) (P22303 whole entry, looked up): as the sequence (P22303 whole entry) above
T2 sequence (P06276 whole entry): as the sequence (P06276 whole entry, looked up) above
Sequence of Carbonic anhydrase 1 (P00915 whole entry): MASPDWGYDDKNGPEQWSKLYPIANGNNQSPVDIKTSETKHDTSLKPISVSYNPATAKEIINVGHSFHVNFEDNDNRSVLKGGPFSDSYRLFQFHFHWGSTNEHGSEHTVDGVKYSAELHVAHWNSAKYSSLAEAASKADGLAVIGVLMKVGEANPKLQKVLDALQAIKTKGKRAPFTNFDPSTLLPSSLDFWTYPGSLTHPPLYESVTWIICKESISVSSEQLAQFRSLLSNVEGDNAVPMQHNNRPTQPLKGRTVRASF
Sequence of Cholinesterase (Equus caballus, UniProt P81908) (P81908 whole entry): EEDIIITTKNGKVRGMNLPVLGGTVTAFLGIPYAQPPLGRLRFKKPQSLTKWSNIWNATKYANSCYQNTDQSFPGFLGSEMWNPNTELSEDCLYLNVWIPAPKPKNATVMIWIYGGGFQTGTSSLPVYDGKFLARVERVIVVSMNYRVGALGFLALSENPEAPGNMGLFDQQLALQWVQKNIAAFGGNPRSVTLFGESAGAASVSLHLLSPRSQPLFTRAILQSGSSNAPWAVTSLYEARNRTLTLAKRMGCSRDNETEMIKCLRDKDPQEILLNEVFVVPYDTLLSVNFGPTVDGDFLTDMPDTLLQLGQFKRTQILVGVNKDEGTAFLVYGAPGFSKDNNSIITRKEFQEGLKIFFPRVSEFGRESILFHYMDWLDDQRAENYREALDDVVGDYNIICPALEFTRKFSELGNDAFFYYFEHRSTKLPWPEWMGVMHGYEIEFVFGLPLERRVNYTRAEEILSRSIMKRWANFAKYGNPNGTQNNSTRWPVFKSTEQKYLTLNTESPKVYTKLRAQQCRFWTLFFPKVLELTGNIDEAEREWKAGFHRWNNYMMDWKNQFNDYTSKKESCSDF
Sequence of High affinity cGMP-specific 3',5'-cyclic phosphodiesterase 9A (O76083 whole entry): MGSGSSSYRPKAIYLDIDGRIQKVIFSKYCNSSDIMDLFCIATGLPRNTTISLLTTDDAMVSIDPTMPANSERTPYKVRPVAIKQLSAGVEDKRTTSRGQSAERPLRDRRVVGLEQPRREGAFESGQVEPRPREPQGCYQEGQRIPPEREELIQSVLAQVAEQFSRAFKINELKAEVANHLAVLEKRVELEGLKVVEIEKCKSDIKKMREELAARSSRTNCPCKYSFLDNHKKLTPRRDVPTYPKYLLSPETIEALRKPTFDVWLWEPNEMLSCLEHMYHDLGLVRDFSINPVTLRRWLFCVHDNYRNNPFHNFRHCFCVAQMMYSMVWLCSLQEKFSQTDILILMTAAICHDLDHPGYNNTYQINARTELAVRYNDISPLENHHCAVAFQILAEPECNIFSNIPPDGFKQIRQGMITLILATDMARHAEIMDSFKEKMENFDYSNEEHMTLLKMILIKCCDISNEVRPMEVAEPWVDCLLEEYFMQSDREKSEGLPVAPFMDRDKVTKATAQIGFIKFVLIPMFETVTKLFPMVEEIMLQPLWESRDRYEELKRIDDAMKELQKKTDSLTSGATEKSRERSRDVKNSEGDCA

As for `CCN(C)C(=O)Oc1ccc(CNc2nc3c(cnn3C3CCCC3)c(=O)[nH]2)cc1OC`, the half-maximal inhibitory concentration (IC50) was found to be 3.3 µM at Cholinesterase [1] and 0.014 µM in data set [2].
On Acetylcholinesterase [3], `CNC(=O)Oc1cccc2c1CCC1C2CCN1CCC1CCCCC1` (configuration not stated) returned an IC50 of 0.058 µM. In addition, the Ki in data set [4] came out at 0.657 µM; in [5], 0.132 µM; in [6] it was 1.52 µM.
As to `CN(CCCOc1ccc2ccc(=O)oc2c1)Cc1cccc(OC(=O)NC2CCCC2)c1`, the figures for the concentration for half-maximal inhibition (IC50) (on Cholinesterase [7]; in data set [8]) were 0.00642 µM and 0.00253 µM, respectively. In [9], the Ratio IC50 was found to be 61.9.
Turning to `C#CCN1CCC(CCc2cccc(OC(=O)N(C)CC)c2)CC1`, the inhibition at Acetylcholinesterase [10] worked out at 50.2%. For the same compound, the inhibition at 100 µM in [11] was 69.4%.
Take `O=C(Nc1ccccc1)OC1CN2CCC1CC2` (configuration not stated): the Ki stood at 1 µM at Acetylcholinesterase [12] and 3 µM on Cholinesterase [13].
As to `Cc1c(Cl)c(=O)oc2cc(OCCCCSC(=S)N3C(C)CCCC3C)ccc12` (configuration not stated), the figures for the concentration for half-maximal inhibition (IC50) (on Acetylcholinesterase [14]; in [15]) were 0.114 µM and 5.85 µM, respectively.
`CCNC(=O)Oc1ccc(-c2cc(=O)c3c(O)c(O)c(O)cc3o2)cc1`: the IC50 worked out at 1.2 µM against Acetylcholinesterase [16] and 22.1 µM against Butyrylcholinesterase. For the same compound, in [17], the Ratio IC50 stood at 18.4.
Turning to `CN(CCCOc1ccc2ccc(=O)oc2c1)Cc1cccc(OC(=O)NC2CCCCC2)c1`, in data set [8], the half-inhibitory concentration (IC50) was determined as 0.00133 µM. The Ratio IC50 in [9] was determined as 2.98.
Regarding `O=C(CCCCC1CCSS1)O[C@@H]1CO[C@H]2[C@@H]1OC[C@@H]2OC(=O)NCc1ccccc1` (some centres not stated), the Ratio IC50 in data set [18] was determined as 667.
As to `COc1cc2c(cc1OC)C(=O)C(Cc1ccc(OC(=O)Nc3ccc(Cl)cc3)cc1)C2` (configuration not stated), half-maximal inhibition at Acetylcholinesterase [19] (IC50) required 4.64 µM.
Consider `CC/N=C1\CCc2c1n(C)c1ccc(OC(=O)NC)c(Cl)c21`, for which the half-maximal inhibitory concentration (IC50) was 0.16 µM against Acetylcholinesterase [20], 0.1 µM in data set [21] and > 1000 µM in data set [22].
Turning to `COc1cccc2c1CCC(NC(=O)OCc1ccccc1)C2` (configuration not stated), the Ki at Carbonic anhydrase 1 was 0.00589 µM; on Carbonic anhydrase 2 it was 0.00739 µM; on Acetylcholinesterase [23] it was 0.000264 µM.
For `CC(C)(C)OC(=O)Nc1ccc(O)c(C(=O)NCCCN2CCCCC2)c1`, the Ki at Acetylcholinesterase [24] is 0.12 µM. This compound registered a 50% inhibitory concentration (IC50) at Beta-secretase 1 of 0.0151 µM.
With `CCCCCCCNC(=O)Oc1ccc2c(c1)[C@]1(C)CCN(C)[C@@H]1N2C` [EPTASTIGMINE], the inhibitory constant (Ki) on Acetylcholinesterase [25] came out at 0.1 µM. Besides, in data set [26], the LD50 is 35 mg/kg.
